# Reference: article PMC2330188 (Acta Crystallographica Section F: Structural Biology and …, 2007)
# Molecular target: 5-formyltetrahydrofolate cyclo-ligase (BA4489) (Bacillus anthracis, UniProt A0A6L8PZ12)
# Sequence (A0A6L8PZ12 2-192 limits assumed): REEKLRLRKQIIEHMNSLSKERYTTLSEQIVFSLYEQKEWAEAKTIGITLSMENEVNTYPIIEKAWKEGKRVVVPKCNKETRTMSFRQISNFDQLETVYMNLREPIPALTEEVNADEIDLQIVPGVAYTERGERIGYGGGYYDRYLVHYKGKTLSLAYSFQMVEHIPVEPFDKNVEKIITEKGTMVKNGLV
smiles,measurement,value
O=P(O)(O)O [phosphate],"X-ray crystal structure, 1.6 Å",hydrolysed to ADP and inorganic phosphate
